Laboratory results taken from PubChem BioAssay (NCI).
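The compound was tested at five concentrations on cells cultured in 96-well plates, with a 48-hour exposure period. TGI marks complete inhibition of growth.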

Columns and labels:
Test in all cases: growth of human tumour cells (NCI), 48 h
786-0 renal = system: 786-0 renal
A498 renal = system: A498 renal
A549 NSCLC = system: A549 NSCLC
ACHN renal = system: ACHN renal
BT-549 breast = system: BT-549 breast
CAKI-1 renal = system: CAKI-1 renal
CCRF-CEM leukemia = system: CCRF-CEM leukemia
COLO 205 colon = system: COLO 205 colon
DU-145 prostate = system: DU-145 prostate
EKVX NSCLC = system: EKVX NSCLC
HCC-2998 colon = system: HCC-2998 colon
HCT-116 colon = system: HCT-116 colon
HCT-15 colon = system: HCT-15 colon
HL-60(TB) leukemia = system: HL-60(TB) leukemia
HOP-62 NSCLC = system: HOP-62 NSCLC
HOP-92 NSCLC = system: HOP-92 NSCLC
HS 578T breast = system: HS 578T breast
HT29 colon = system: HT29 colon
IGROV1 ovarian = system: IGROV1 ovarian
K-562 leukemia = system: K-562 leukemia
KM12 colon = system: KM12 colon
LOX IMVI melanoma = system: LOX IMVI melanoma
M14 melanoma = system: M14 melanoma
MALME-3M melanoma = system: MALME-3M melanoma
MCF7 breast = system: MCF7 breast
MDA-MB-231 breast = system: MDA-MB-231 breast
MDA-MB-435 = system: MDA-MB-435
MDA-N = system: MDA-N
MOLT-4 leukemia = system: MOLT-4 leukemia
NCI-H226 lung = system: NCI-H226 lung
NCI-H23 lung = system: NCI-H23 lung
NCI-H460 lung = system: NCI-H460 lung
NCI-H522 lung = system: NCI-H522 lung
NCI/ADR-RES ovarian = system: NCI/ADR-RES ovarian
OVCAR-3 ovarian = system: OVCAR-3 ovarian
OVCAR-4 ovarian = system: OVCAR-4 ovarian
OVCAR-5 ovarian = system: OVCAR-5 ovarian
OVCAR-8 ovarian = system: OVCAR-8 ovarian
PC-3 prostate = system: PC-3 prostate
RPMI-8226 leukemia = system: RPMI-8226 leukemia
RXF 393 renal = system: RXF 393 renal
SF-268 CNS = system: SF-268 CNS
SF-295 CNS = system: SF-295 CNS
SF-539 CNS = system: SF-539 CNS
SK-MEL-2 melanoma = system: SK-MEL-2 melanoma
SK-MEL-28 melanoma = system: SK-MEL-28 melanoma
SK-MEL-5 melanoma = system: SK-MEL-5 melanoma
SK-OV-3 ovarian = system: SK-OV-3 ovarian
SN12C renal = system: SN12C renal
SNB-19 CNS = system: SNB-19 CNS
SNB-75 CNS = system: SNB-75 CNS
SR leukemia = system: SR leukemia
SW-620 colon = system: SW-620 colon
T-47D breast = system: T-47D breast
TK-10 renal = system: TK-10 renal
U251 CNS = system: U251 CNS
UACC-257 melanoma = system: UACC-257 melanoma
UACC-62 melanoma = system: UACC-62 melanoma
UO-31 renal = system: UO-31 renal

**Q.** `N#CC(c1ccnc(Cl)n1)c1nc2ccccc2s1` (centres undefined) was tested. Which TGI (786-0 renal) did it give?
**A.** 16.1 µM

**Q.** And the TGI (A498 renal)?
**A.** 46.7 µM

**Q.** And the TGI (A549 NSCLC)?
**A.** 52.4 µM

**Q.** What about the TGI (ACHN renal) of the same compound?
**A.** > 94 µM

**Q.** And the TGI (BT-549 breast)?
**A.** > 26 µM

**Q.** And the TGI (CAKI-1 renal)?
**A.** > 45.4 µM

**Q.** What about the TGI (CCRF-CEM leukemia) of the same compound?
**A.** 0.928 µM

**Q.** What about the TGI (COLO 205 colon) of the same compound?
**A.** 24.6 µM

**Q.** What about the TGI (DU-145 prostate) of the same compound?
**A.** > 100 µM

**Q.** And the TGI (EKVX NSCLC)?
**A.** > 74.6 µM

**Q.** And the TGI (HCC-2998 colon)?
**A.** 46.8 µM

**Q.** And the TGI (HCT-116 colon)?
**A.** 9.38 µM

**Q.** And the TGI (HCT-15 colon)?
**A.** 14.8 µM

**Q.** And the TGI (HL-60(TB) leukemia)?
**A.** 5.43 µM

**Q.** And the TGI (HOP-62 NSCLC)?
**A.** 56.8 µM

**Q.** And the TGI (HOP-92 NSCLC)?
**A.** 14.1 µM

**Q.** And the TGI (HS 578T breast)?
**A.** 28.4 µM

**Q.** What about the TGI (HT29 colon) of the same compound?
**A.** 10.3 µM

**Q.** What about the TGI (IGROV1 ovarian) of the same compound?
**A.** > 53.2 µM

**Q.** And the TGI (K-562 leukemia)?
**A.** 76.2 µM

**Q.** What about the TGI (KM12 colon) of the same compound?
**A.** > 45.9 µM

**Q.** And the TGI (LOX IMVI melanoma)?
**A.** > 33.9 µM

**Q.** What about the TGI (M14 melanoma) of the same compound?
**A.** 20.4 µM

**Q.** And the TGI (MALME-3M melanoma)?
**A.** > 26.5 µM

**Q.** And the TGI (MCF7 breast)?
**A.** 40.6 µM

**Q.** And the TGI (MDA-MB-231 breast)?
**A.** 12.3 µM

**Q.** And the TGI (MDA-MB-435)?
**A.** > 100 µM

**Q.** And the TGI (MDA-N)?
**A.** 12.9 µM

**Q.** And the TGI (MOLT-4 leukemia)?
**A.** > 39.3 µM

**Q.** What about the TGI (NCI-H226 lung) of the same compound?
**A.** > 47.4 µM

**Q.** And the TGI (NCI-H23 lung)?
**A.** 15.6 µM

**Q.** What about the TGI (NCI-H460 lung) of the same compound?
**A.** > 100 µM

**Q.** And the TGI (NCI-H522 lung)?
**A.** 11.1 µM

**Q.** And the TGI (NCI/ADR-RES ovarian)?
**A.** 19.7 µM

**Q.** What about the TGI (OVCAR-3 ovarian) of the same compound?
**A.** 26.2 µM

**Q.** What about the TGI (OVCAR-4 ovarian) of the same compound?
**A.** > 100 µM

**Q.** What about the TGI (OVCAR-5 ovarian) of the same compound?
**A.** > 92.5 µM

**Q.** And the TGI (OVCAR-8 ovarian)?
**A.** > 41.2 µM

**Q.** And the TGI (PC-3 prostate)?
**A.** 26 µM

**Q.** What about the TGI (RPMI-8226 leukemia) of the same compound?
**A.** 25.9 µM

**Q.** And the TGI (RXF 393 renal)?
**A.** > 62.7 µM

**Q.** What about the TGI (SF-268 CNS) of the same compound?
**A.** > 63.6 µM

**Q.** What about the TGI (SF-295 CNS) of the same compound?
**A.** 31.5 µM

**Q.** And the TGI (SF-539 CNS)?
**A.** 15.1 µM

**Q.** And the TGI (SK-MEL-2 melanoma)?
**A.** 28.1 µM

**Q.** And the TGI (SK-MEL-28 melanoma)?
**A.** > 100 µM

**Q.** What about the TGI (SK-MEL-5 melanoma) of the same compound?
**A.** 3.1 µM

**Q.** What about the TGI (SK-OV-3 ovarian) of the same compound?
**A.** 16 µM

**Q.** What about the TGI (SN12C renal) of the same compound?
**A.** 10.1 µM

**Q.** And the TGI (SNB-19 CNS)?
**A.** > 75.1 µM

**Q.** And the TGI (SNB-75 CNS)?
**A.** 13 µM

**Q.** And the TGI (SR leukemia)?
**A.** 28.7 µM

**Q.** And the TGI (SW-620 colon)?
**A.** > 70.7 µM

**Q.** And the TGI (T-47D breast)?
**A.** 22.4 µM

**Q.** And the TGI (TK-10 renal)?
**A.** > 60.7 µM

**Q.** What about the TGI (U251 CNS) of the same compound?
**A.** 13.3 µM

**Q.** And the TGI (UACC-257 melanoma)?
**A.** 41.2 µM

**Q.** And the TGI (UACC-62 melanoma)?
**A.** 15.8 µM

**Q.** And the TGI (UO-31 renal)?
**A.** 28.4 µM
